Data taken from article PMC11481871, “Discovery of GuaB inhibitors with efficacy against Acinetobacter baumannii infection” (mBio, 2024).
Values after ≈ are worked out from the molar mass of the structure shown. Like-named read-outs stand apart in the source and are kept apart here.

Assays:
[1] = tested on: carbapenem-resistant A. baumannii clinical isolates; assay: microbe, parasite or virus in culture; assay type: cell-based; details: Acinetobacter baumannii
[2] = In vivo pharmacokinetic study, 24-h i.v. infusion; set-up: species or system mouse; details: mice; for AUC(0-t): female, CD-1, mouse, whole blood, iv, read-out: exposure AUC0-24
Procedure: Two female CD-1 mice were given a 750 mg/kg of 24 h i.v. infusion dose of G2. […] Two female CD-1 mice were given a 250 mg/kg of 24-h i.v. infusion dose of G1. Another group of two mice received 250 mg/kg of 24-h i.v. infusion dose of G1 with a 150 mg/kg ABT PO dose of pretreatment at 2 h prior the i.v. infusion. Ten microliters of blood was collected accurately at 0.5, 1, 2, 4, 6, 8, and 24 h after infusion start. Blood samples were then immediately placed into labeled polypropylene micro-centrifuge tubes containing 40 µL of 1.7 mg/mL potassium (K2) EDTA in water, mixed, and then frozen and stored at −70°C until bio-analysis.
G2, G1, ABT, and 4-MP blood concentrations in mouse PK studies were determined by LC-MS/MS. All samples were prepared by protein precipitation. Chromatographic separations were achieved using an ACQUITY CM UPLC system (Waters, Milford, MA) including an ACQUITY BSM solvent delivery system, an ACQUITY SM autosampler, and an ACQUITY CM column oven. For G1, G2, and ABT, an ACQUITY UPLC HSS T3 column (2.1 × 50 mm, 1.8 µm) was used. For 4-MP, an ACQUITY UPLC BEH Amide column (2.1 × 50 mm, 1.7 µm) was used. Gradient elution that contained 0.1% formic acid in water and 0.1% formic acid in acetonitrile was used for G1, ABT, and 4-MP. Gradient elution that contained 0.1% formic acid with 2 mM ammonium formate in water/acetonitrile (vol/vol, 95:5) was used for G2. The LC flow rate was 0.6 mL/min for G1, G2, and ABT, and 0.5 mL/min for 4-MP. The sample injection volume was 1 µL for ABT, G1, and G2, and 2 µL for 4-MP. A QTrap 5500/6500 tandem mass spectrometer (SCIEX, Foster City, CA) with TurboIonSpray interface was operated in positive ionization mode with multiple reaction monitoring (MRM) for LC-MS/MS analysis. The mass spectrometer was operated at unit mass resolution for both Q1 and Q3 quadrupoles. The precursor to product ion transitions of analytes are presented as Q1/Q3 ratios for each compound: 4-MP (83.0/56.1), G1 (383.1/197.1), G2 (399.1/171.0), and ABT (135.0/80.1). The standard curves cover the ranges of 0.005 µg/mL–11.7 µg/mL, 0.005 µg/mL–33.4 µg/mL, 0.05 µg/mL–334 µg/mL, and 1.37 µg/mL–334 µg/mL for G1, G2, ABT, and 4-MP, respectively.

[3] = molecular target: T1, hERG (Homo sapiens, UniProt Q12809); assay: hERG 2-point automatic patch clamp assay; assay type: cell-based
T1 construct: expressed in transfected cells; host or cells: HEK293
T1 sequence (Q12809 whole entry): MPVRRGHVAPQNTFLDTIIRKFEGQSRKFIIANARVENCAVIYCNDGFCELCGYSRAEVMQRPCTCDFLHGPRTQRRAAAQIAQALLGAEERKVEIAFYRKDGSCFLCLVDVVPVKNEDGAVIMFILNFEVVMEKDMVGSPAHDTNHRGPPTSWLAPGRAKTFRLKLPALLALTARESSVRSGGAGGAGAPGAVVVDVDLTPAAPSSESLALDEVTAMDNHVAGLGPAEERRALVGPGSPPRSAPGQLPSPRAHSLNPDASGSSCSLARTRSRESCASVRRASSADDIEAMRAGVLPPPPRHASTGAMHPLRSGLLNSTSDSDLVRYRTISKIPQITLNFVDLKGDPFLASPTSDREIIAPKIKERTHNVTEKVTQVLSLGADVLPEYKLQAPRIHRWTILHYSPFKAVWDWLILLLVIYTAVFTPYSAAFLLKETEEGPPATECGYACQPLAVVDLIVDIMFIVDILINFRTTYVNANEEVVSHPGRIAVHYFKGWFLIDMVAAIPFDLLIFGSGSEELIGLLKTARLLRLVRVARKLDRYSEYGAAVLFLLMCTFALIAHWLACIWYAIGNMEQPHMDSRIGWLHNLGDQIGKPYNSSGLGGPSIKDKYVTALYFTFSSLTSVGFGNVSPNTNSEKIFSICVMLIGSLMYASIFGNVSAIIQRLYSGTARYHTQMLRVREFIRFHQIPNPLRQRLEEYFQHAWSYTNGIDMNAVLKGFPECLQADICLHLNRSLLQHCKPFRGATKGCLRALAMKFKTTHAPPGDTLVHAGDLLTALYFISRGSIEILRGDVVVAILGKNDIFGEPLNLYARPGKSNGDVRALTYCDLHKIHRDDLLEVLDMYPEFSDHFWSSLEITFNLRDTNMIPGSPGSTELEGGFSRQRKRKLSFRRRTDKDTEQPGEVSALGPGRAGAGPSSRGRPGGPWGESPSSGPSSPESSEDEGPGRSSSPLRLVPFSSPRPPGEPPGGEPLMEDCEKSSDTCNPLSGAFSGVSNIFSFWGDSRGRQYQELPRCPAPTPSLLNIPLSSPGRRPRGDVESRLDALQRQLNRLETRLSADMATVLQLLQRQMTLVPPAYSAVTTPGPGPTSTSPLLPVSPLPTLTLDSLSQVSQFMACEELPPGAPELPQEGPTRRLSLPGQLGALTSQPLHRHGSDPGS
Procedure: All chemicals used in solution preparation were purchased from Sigma-Aldrich (St. Louis, MO) unless otherwise noted. Test article and positive control concentrations were prepared fresh daily by diluting stock solutions into a HEPES-buffered physiological saline solution (composition in mM): NaCl, 137; KCl, 4.0; CaCl2, 1.8; MgCl2, 1; HEPES, 10; glucose, 10; pH adjusted to 7.4 with NaOH. HEK293 cells were stably transfected with hERG cDNA and maintained in the culture medium with the appropriate selection pressure and antibiotics. All experiments were performed at room temperature. […]
In preparation for a recording session, intracellular solution was loaded into the intracellular compartments of the QPlate and cell suspension was pipetted into the extracellular compartments. After establishment of a whole-cell configuration, membrane currents were recorded using up to 48 parallel patch clamp amplifiers in the QPatch HT system. The current records were sampled at 2,000 Hz and low-pass Bessel filtered at 400 Hz. Onset and block of hERG current were measured using a stimulus voltage pattern consisting of a 500 ms prepulse to –40 mV (leakage subtraction), a 2-s activating pulse to +40 mV, followed by a 2-s test pulse to −40 mV. The pulse pattern was repeated continuously at 10-s intervals, from a holding potential of −80 mV. Peak tail current (upper panel) was measured during the −40 mV test pulse. Leakage current was calculated from the current amplitude evoked by the prepulse and subtracted from the total membrane current record. Data acquisition and analysis was performed using the QPatch Assay Software (Sophion Bioscience A/S, Denmark). Solubility of all compounds was measured using TurboSol in conjunction with the ion channel testing.

[4] = tested on: A. baumannii 19606; assay: Neutropenic thigh infection model with i.v. GuaBi; details: for bacterial load in thigh muscle: neutropenic CD-1 mice, A. baumannii 19606, i.v. infusion with PK boosters, 24 h, high dose groups; for free drug over serum-free MIC at which bactericidal: neutropenic thigh model, A. baumannii

Row | Compound | MIC50 [1] | MIC90 [1] | AUC(0-t) ([2]; 24-h i.v. infusion 250 mg/kg, co-administered 150 mg/kg ABT) | exposure higher than without co-administration with ABT ([2]; 250 mg/kg 24-h i.v. infusion) | hERG 1µM [3] | hERG 10µM [3] | bacterial load in thigh muscle [4] | free drug over serum-free MIC at which bactericidal [4] | AUC(0-t) ([2]; 24-h i.v. infusion 750 mg/kg, co-administered 150 mg/kg ABT and 100 mg/kg 4-MP) | exposure higher than without co-administration with ABT and 4-MP ([2]; 750 mg/kg 24-h i.v. infusion) | hERG 50µM [3]
1 | C[C@H](Nc1ccc2ncc3c(c2c1)CCOC3)C(=O)Nc1ccc(Cl)nc1 [G1, (2S)-N-(6-chloro-3-pyridyl)-2-(2,4-dihydro-1H-pyrano[3,4-c]quinolin-9 ylamino)propanamide] | 3.1 µM (≈ 1.19 µg/mL) | 8 µM (≈ 3.06 µg/mL) | 692 µM·h | fourfold | 2.80% | 37.20% | reduced the bacterial load in thigh muscle compared to pre-treatment | above 2 × Fu/MIC | – | – | –
2 | C[C@H](Nc1ccc2ncc(CO)cc2c1)C(=O)Nc1ccc(Cl)c(N(C)C)c1 [G2, (2S)-N-[4-chloro-3-(dimethylamino)phenyl]-2-[[3-(hydroxymethyl)-6-quinolyl]amino]propanamide] | 6.25 µM (≈ 2.49 µg/mL) | 16 µM (≈ 6.38 µg/mL) | – | – | 1.70% | 8.60% | reduced the bacterial load in thigh muscle compared to pre-treatment | 5 × Fu/MIC | 21300 µM·h | 100 fold | *48.5%
3 | C[C@@H](Oc1ccc2ncc3c(c2c1)CCOC3)c1cncc(-c2nc(Cl)c[nH]2)c1 [G8, (R)-9-[1-[5-(4-chloro-1H-imidazol-2-yl)-3-pyridyl]ethoxy]-2,4-dihydro-1H-pyrano[3,4 c]quinoline] | – | – | – | – | – | 6.3% | – | – | – | – | 50.1%
